Here are results for 47 molecules from PubChem BioAssay AID652124 (The Scripps Research Institute Molecular Screening Center, 2013).

Activity calls are given as the source filed them. The rule behind the calls is not given here.

By IC50 is commonly meant the concentration that gives 50% inhibition.

In the experiment the target is Perilipin-5 (Homo sapiens) + 1-acylglycerol-3-phosphate O-acyltransferase ABHD5 (Homo sapiens) (UniProt Q00G26+Q8WTS1). Nature of the experiment: inhibition of ABHD5 association with perilipin-5 – biochemical, luminescence, dose response, round 2, late-stage follow-up (AID 652124). The settings on record: biochemical ABHD5-PLIN5 interaction.
Chain of Perilipin-5 (Homo sapiens) + 1-acylglycerol-3-phosphate O-acyltransferase ABHD5 (Homo sapiens) (Q00G26 whole entry, looked up): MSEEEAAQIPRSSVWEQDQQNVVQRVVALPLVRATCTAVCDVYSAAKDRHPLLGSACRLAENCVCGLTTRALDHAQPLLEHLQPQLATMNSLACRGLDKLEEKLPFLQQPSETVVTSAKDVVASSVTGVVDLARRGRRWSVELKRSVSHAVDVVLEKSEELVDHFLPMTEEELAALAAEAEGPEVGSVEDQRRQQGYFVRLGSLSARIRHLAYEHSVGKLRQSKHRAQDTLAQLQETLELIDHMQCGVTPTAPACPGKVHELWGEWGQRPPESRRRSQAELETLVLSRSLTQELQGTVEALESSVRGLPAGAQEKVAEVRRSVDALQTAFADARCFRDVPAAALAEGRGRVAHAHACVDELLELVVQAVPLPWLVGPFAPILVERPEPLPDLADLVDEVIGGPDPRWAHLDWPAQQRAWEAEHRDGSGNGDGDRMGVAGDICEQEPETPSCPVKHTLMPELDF
Chain of Perilipin-5 (Homo sapiens) + 1-acylglycerol-3-phosphate O-acyltransferase ABHD5 (Homo sapiens) (Q8WTS1 whole entry, looked up): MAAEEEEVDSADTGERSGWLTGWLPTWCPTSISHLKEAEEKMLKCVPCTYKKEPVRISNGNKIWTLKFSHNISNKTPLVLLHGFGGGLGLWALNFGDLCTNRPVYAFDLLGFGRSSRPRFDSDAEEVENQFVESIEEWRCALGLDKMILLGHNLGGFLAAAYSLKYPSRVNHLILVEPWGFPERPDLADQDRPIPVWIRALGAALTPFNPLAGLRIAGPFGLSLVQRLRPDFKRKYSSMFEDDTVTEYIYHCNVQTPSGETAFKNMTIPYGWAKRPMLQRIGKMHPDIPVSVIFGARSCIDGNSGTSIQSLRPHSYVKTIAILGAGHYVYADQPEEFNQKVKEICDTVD
On to `O=C(Nc1ccc2ccccc2c1)c1nc(S(=O)(=O)Cc2ccccc2)ncc1Cl`, for which the IC50 is 2.17 µM.

As to `CCS(=O)(=O)c1ncc(Cl)c(C(=O)Nc2ccc(S(N)(=O)=O)cc2)n1`, the IC50 was 6.48 µM.

`O=C(C1COc2ccccc2O1)N1CCN(S(=O)(=O)c2ccc3c(c2)OCCO3)CC1` (configuration not stated): the IC50 is > 39.8 µM (inactive).

In the case of `CC(NC(=O)CN1CCN(S(=O)(=O)c2ccc3c(c2)OCCCO3)CC1)c1cc2ccccc2o1` (configuration not stated), the IC50 was > 39.8 µM (inactive).

As to `CC(C)N1C(=O)c2ccccc2Oc2ccc(NC(=O)c3ccccc3)cc21`, the IC50 was > 39.8 µM (inactive).

In the case of `CN1C(=O)c2ccccc2Sc2ccc(NC(=O)NCCc3cccs3)cc21`, the IC50 was 4.98 µM.

As to `CN(C)CCCN(C(=O)C1CCCCC1)c1nc2cc(Br)ccc2s1`, the IC50 result is “inactive”.

For the molecule `CCS(=O)(=O)c1ncc(Cl)c(C(=O)Nc2ccc(C)cc2)n1`, the IC50 was 4.13 µM.

As to `NS(=O)(=O)c1ccc(NC(=O)c2nc(S(=O)(=O)Cc3ccccc3)ncc2Cl)cc1`, the IC50 was 3.8 µM.

In the case of `CCc1ccc2c(CC(=O)N3CCN(S(=O)(=O)c4ccc5c(c4)OCCO5)CC3)coc2c1`, the IC50 is 3.88 µM.

As for `Cc1ccc(CS(=O)(=O)c2ncc(Cl)c(C(=O)Nc3cccc4ccccc34)n2)cc1`, the IC50 is 2.19 µM.

On to `Cc1ccc(CS(=O)(=O)c2ncc(Cl)c(C(=O)Nc3cccc(C(F)(F)F)c3)n2)cc1`, for which the IC50 is 1.76 µM.

`CN(C)CCCN(C(=O)c1cc2ccccc2oc1=O)c1nc2ccc(Cl)cc2s1`: the IC50 entry was “inactive”.

On to `CCCS(=O)(=O)c1ncc(Cl)c(C(=O)Nc2ccc(C(=O)OC)cc2)n1`, for which the IC50 is 4.44 µM.

As for `CN(C(=O)c1nc(S(C)(=O)=O)ncc1Cl)c1ccccc1`, the IC50 was 3.56 µM.

On to `CCCCCNC(=O)Nc1ccc2c(c1)Sc1ccccc1C(=O)N2C`, for which the IC50 is > 39.8 µM (inactive).

In the case of `O=C(CCc1nc2ccccc2s1)N1CCN(S(=O)(=O)c2ccc3c(c2)OCCO3)CC1`, the IC50 was > 39.8 µM (inactive).

For the molecule `Cc1ccc2cc(CC(=O)N3CCN(S(=O)(=O)c4ccc5c(c4)OCCO5)CC3)oc2c1`, the IC50 result is “inactive”.

Turning to `CN(C)CCCN(C(=O)Cc1ccc(F)cc1)c1nc2ccc(Cl)cc2s1`, the IC50 entry is “inactive”.

Turning to `CCCCCCNC(=O)Nc1ccc2c(c1)Sc1ccccc1C(=O)N2C`, the IC50 was > 39.8 µM (inactive).

Regarding `CCCC(=O)Nc1ccc2c(c1)C(=O)N(C)c1cc(C)ccc1O2`, the IC50 is > 39.8 µM (inactive).

On to `Cc1ccc(CS(=O)(=O)c2ncc(Cl)c(C(=O)N3CCN(C)CC3)n2)cc1`, for which the IC50 is 5.91 µM.

As for `CN1C(=O)c2ccccc2Sc2ccc(NC(=O)NCCc3ccccc3)cc21`, the IC50 was 3.7 µM.

Regarding `COc1ccc(CC(=O)N2CCCN(S(=O)(=O)c3ccc(C)cc3)CC2)cc1OC`, the IC50 was > 39.8 µM (inactive).

On to `CCCCCCCNC(=O)Nc1ccc2c(c1)Sc1ccccc1C(=O)N2C`, for which the IC50 result was “inactive”.

On to `CCCS(=O)(=O)c1ccc(Cl)c(C(=O)Nc2ccc(C(=O)OCC)cc2)c1`, for which the IC50 was 4.12 µM.

With `O=C(CCc1c[nH]c2ccccc12)N1CCN(S(=O)(=O)c2ccc3c(c2)OCCO3)CC1`, the IC50 was > 39.8 µM (inactive).

Regarding `Cc1ccc(NC(=O)c2nc(S(C)(=O)=O)ncc2Cl)cc1`, the IC50 was 4.24 µM.

On to `COc1ccc(CC(=O)N2CCN(S(=O)(=O)c3ccc4c(c3)OCCCO4)CC2)cc1`, for which the IC50 is > 39.8 µM (inactive).

On to `CCCC(=O)Nc1ccc2c(c1)C(=O)N(C)c1ccccc1O2`, for which the IC50 was > 39.8 µM (inactive).

With `CN1C(=O)c2ccccc2Sc2ccc(NC(=O)NCCCc3ccccc3)cc21`, the IC50 was 1.72 µM.

Regarding `O=C(Cc1ccc2c(c1)CCCC2)N1CCN(S(=O)(=O)c2ccc3c(c2)OCCO3)CC1`, the IC50 result is “inactive”.

Regarding `Cc1ccc(CS(=O)(=O)c2ncc(Cl)c(C(=O)NCc3ccc4c(c3)OCO4)n2)cc1`, the IC50 is 3.15 µM.

For the molecule `Cc1ccc2c(CC(=O)N3CCN(S(=O)(=O)c4ccc5c(c4)OCCCO5)CC3)coc2c1C`, the IC50 is 4.72 µM.

As for `CCCNC(=O)Nc1ccc2c(c1)N(CC)C(=O)c1ccccc1S2`, the IC50 entry was “inactive”.

Regarding `CN1C(=O)c2ccccc2Oc2ccc(NC(=O)c3cc4ccccc4[nH]3)cc21`, the IC50 was > 39.8 µM (inactive).

In the case of `CN1C(=O)c2ccccc2Oc2ccc(NC(=O)c3cccs3)cc21`, the IC50 is > 39.8 µM (inactive).

As for `O=C(Cc1cccc(F)c1)N1CCN(S(=O)(=O)c2ccc3c(c2)OCCO3)CC1`, the IC50 is > 39.8 µM (inactive).

In the case of `CN(C)CCCN(C(=O)CCc1ccccc1)c1nc2ccc(Cl)cc2s1`, the IC50 entry is “inactive”.

As for `CCCC(=O)N(CCCN1CCOCC1)c1nc2ccc(Cl)cc2s1`, the IC50 was > 39.8 µM (inactive).

In the case of `CS(=O)(=O)c1ncc(Cl)c(C(=O)Nc2ccc(C(F)(F)F)cc2)n1`, the IC50 is 1.45 µM.

Turning to `CN(C)CCCN(C(=O)C1CCCCC1)c1nc2cc(Cl)ccc2s1`, the IC50 was > 39.8 µM (inactive).

Consider `Cc1ccc(CS(=O)(=O)c2ncc(Cl)c(C(=O)Nc3nnc(C(C)C)s3)n2)cc1`, for which the IC50 was > 13.3 µM (inactive).

For the molecule `O=C(c1nc(S(=O)(=O)Cc2ccccc2)ncc1Cl)N(Cc1ccccc1)Cc1ccco1`, the IC50 was 1.64 µM.

As to `COc1ccc(OCC(=O)Nc2ccc3c(c2)N(C(C)C)C(=O)c2ccccc2O3)cc1`, the IC50 is > 39.8 µM (inactive).

`COc1ccc(CCNC(=O)c2nc(S(=O)(=O)Cc3ccc(F)cc3)ncc2Cl)cc1OC`: the IC50 is 2.95 µM.

With `O=C(CCn1cnc2ccccc21)N1CCN(S(=O)(=O)c2ccc3c(c2)OCCO3)CC1`, the IC50 is > 39.8 µM (inactive).
